According to publication PMC10879502, “Linking ATP and allosteric sites to achieve superadditive binding with bivalent EGFR kinase inhibitors” (Communications Chemistry, 2024):

Key:
Experiment in all cases: KINOMEscan
Assay type in all cases: binding
Details in all cases: 1 μM
[1] = target: T1, ABL1(E255K)-phosphorylated (Homo sapiens, UniProt P00519, E255K)
T1 construct: purchased Eurofins DiscoverX Corporation

[2] = target: T2, ABL1(Y253F)-phosphorylated (Homo sapiens, UniProt P00519, Y253F)
T2 construct: purchased Eurofins DiscoverX Corporation

ABL2 = target: T3, ABL2 (Homo sapiens, UniProt P42684)
T3 construct: purchased Eurofins DiscoverX Corporation

ADCK4 = ADCK4 (Homo sapiens, UniProt Q96D53)
BTK = target: T4, BTK (Homo sapiens, UniProt Q06187)
T4 construct: purchased Eurofins DiscoverX Corporation (KINOMEscan)

CAMK2G = target: T5, CAMK2G (Homo sapiens, UniProt Q13555)
T5 construct: purchased Eurofins DiscoverX Corporation (KINOMEscan)

CASK = target: T6, CASK (Homo sapiens, UniProt O14936)
T6 construct: purchased Eurofins DiscoverX Corporation (KINOMEscan)

CDK3 = CDK3 (Homo sapiens, UniProt Q00526)
CDK5 = CDK5 (Homo sapiens, UniProt Q00535)
CDKL1 = CDKL1 (Homo sapiens, UniProt Q00532)
CLK3 = CLK3 (Homo sapiens, UniProt P49761)
CSNK1D = target: T7, CSNK1D (Homo sapiens, UniProt P48730)
T7 construct: purchased Eurofins DiscoverX Corporation
T7 sequence (P48730 whole entry): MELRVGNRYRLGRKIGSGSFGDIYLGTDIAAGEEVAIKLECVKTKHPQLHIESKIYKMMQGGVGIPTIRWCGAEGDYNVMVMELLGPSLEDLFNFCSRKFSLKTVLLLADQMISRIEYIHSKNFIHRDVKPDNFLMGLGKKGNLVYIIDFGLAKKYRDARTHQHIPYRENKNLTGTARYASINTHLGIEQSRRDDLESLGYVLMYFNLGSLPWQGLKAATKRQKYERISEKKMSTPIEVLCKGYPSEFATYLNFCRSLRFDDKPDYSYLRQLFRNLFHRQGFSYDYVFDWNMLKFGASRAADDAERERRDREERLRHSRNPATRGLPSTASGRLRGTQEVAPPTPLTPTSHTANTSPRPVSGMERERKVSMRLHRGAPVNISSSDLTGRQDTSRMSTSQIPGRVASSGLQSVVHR

DCAMKL1 = target: T8, DCAMKL1 (Homo sapiens, UniProt O15075)
T8 construct: purchased Eurofins DiscoverX Corporation

DDR1 = target: T9, DDR1 (Homo sapiens, UniProt Q08345)
T9 construct: purchased Eurofins DiscoverX Corporation

DMPK = target: T10, DMPK (Homo sapiens, UniProt Q09013)
T10 construct: purchased Eurofins DiscoverX Corporation

DYRK1A = target: T11, DYRK1A (Homo sapiens, UniProt Q13627)
T11 construct: purchased Eurofins DiscoverX Corporation

DYRK1B = target: T12, DYRK1B (Homo sapiens, UniProt Q9Y463)
T12 construct: purchased Eurofins DiscoverX Corporation
T12 sequence (Q9Y463 whole entry): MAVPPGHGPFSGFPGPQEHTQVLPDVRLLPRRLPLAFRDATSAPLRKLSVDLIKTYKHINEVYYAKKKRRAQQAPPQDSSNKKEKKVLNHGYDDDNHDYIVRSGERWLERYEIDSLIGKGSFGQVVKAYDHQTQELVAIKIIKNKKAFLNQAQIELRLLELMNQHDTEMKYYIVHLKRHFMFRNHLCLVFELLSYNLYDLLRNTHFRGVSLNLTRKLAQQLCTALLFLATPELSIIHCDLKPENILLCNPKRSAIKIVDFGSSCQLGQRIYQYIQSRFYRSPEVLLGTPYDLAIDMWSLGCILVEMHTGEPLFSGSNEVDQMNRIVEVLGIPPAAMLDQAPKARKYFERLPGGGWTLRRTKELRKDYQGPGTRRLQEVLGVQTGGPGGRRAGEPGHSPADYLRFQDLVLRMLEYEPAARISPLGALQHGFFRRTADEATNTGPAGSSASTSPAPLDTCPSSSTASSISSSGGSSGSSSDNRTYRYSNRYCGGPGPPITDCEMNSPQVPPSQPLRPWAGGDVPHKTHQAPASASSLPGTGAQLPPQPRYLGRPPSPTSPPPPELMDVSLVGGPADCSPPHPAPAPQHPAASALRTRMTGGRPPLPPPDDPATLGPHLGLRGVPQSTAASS

EGFR(L861Q) = EGFR(L861Q) (Homo sapiens, UniProt P00533, L861Q)
FLT3(D835Y) = FLT3(D835Y) (Homo sapiens, UniProt P36888, D835Y)
GRK2 = target: T13, GRK2 (Homo sapiens, UniProt P25098)
T13 construct: purchased Eurofins DiscoverX Corporation

HIPK1 = target: T14, HIPK1 (Homo sapiens, UniProt Q86Z02)
T14 construct: purchased Eurofins DiscoverX Corporation

LATS1 = target: T15, LATS1 (Homo sapiens, UniProt O95835)
T15 construct: purchased Eurofins DiscoverX Corporation

MAK = target: T16, MAK (Homo sapiens, UniProt P20794)
T16 construct: purchased Eurofins DiscoverX Corporation

MAP4K2 = target: T17, MAP4K2 (Homo sapiens, UniProt Q12851)
T17 construct: purchased Eurofins DiscoverX Corporation

MINK = target: T18, MINK (Homo sapiens, UniProt Q8N4C8)
T18 construct: purchased Eurofins DiscoverX Corporation
T18 sequence (Q8N4C8 whole entry): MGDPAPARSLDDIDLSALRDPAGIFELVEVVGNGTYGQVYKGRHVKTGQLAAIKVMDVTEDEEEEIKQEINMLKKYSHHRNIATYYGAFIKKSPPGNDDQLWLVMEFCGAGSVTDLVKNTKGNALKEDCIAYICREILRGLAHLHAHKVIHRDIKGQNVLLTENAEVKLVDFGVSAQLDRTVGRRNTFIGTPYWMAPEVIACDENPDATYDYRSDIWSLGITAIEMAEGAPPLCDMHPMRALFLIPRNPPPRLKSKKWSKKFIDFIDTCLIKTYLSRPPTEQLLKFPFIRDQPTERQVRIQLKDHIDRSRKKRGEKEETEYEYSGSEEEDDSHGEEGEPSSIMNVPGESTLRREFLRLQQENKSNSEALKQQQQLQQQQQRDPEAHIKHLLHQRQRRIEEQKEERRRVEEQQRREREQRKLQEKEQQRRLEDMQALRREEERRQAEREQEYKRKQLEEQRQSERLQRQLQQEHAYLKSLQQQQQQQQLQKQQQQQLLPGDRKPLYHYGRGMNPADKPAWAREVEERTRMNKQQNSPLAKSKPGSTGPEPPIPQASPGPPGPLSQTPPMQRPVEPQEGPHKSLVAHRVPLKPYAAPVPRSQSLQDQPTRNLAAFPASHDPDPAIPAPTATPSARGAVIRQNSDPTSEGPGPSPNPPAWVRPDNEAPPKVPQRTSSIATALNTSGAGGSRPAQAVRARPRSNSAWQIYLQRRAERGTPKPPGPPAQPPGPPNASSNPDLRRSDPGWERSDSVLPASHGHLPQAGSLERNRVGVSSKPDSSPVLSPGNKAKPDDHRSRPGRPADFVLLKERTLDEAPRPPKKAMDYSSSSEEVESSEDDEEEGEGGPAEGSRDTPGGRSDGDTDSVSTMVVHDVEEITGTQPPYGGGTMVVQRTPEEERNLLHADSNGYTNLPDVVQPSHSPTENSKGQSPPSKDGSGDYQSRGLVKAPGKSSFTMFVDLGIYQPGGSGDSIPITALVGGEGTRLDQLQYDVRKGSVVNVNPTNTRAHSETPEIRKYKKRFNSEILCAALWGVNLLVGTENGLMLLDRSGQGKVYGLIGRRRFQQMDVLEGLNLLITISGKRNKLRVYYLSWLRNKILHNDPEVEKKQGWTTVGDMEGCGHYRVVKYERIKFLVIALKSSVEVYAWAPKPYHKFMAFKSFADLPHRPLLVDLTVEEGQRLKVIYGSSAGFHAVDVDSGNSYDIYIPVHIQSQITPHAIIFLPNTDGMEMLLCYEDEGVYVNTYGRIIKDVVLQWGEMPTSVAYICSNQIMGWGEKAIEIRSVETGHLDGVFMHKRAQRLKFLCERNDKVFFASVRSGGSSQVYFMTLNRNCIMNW

MRCKA = target: T19, MRCKA (Homo sapiens, UniProt Q5VT25)
T19 construct: purchased Eurofins DiscoverX Corporation

NEK7 = NEK7 (Homo sapiens, UniProt Q8TDX7)
OSR1 = OSR1 (Homo sapiens, UniProt O95747)
PAK1 = PAK1 (Homo sapiens, UniProt Q13153)
PHKG1 = PHKG1 (Homo sapiens, UniProt Q16816)
PIP5K1A = PIP5K1A (Homo sapiens, UniProt Q99755)
PIP5K2B = PIP5K2B (Homo sapiens, UniProt P78356)
ROCK2 = ROCK2 (Homo sapiens, UniProt O75116)
Sequence of ROCK2 (O75116 whole entry): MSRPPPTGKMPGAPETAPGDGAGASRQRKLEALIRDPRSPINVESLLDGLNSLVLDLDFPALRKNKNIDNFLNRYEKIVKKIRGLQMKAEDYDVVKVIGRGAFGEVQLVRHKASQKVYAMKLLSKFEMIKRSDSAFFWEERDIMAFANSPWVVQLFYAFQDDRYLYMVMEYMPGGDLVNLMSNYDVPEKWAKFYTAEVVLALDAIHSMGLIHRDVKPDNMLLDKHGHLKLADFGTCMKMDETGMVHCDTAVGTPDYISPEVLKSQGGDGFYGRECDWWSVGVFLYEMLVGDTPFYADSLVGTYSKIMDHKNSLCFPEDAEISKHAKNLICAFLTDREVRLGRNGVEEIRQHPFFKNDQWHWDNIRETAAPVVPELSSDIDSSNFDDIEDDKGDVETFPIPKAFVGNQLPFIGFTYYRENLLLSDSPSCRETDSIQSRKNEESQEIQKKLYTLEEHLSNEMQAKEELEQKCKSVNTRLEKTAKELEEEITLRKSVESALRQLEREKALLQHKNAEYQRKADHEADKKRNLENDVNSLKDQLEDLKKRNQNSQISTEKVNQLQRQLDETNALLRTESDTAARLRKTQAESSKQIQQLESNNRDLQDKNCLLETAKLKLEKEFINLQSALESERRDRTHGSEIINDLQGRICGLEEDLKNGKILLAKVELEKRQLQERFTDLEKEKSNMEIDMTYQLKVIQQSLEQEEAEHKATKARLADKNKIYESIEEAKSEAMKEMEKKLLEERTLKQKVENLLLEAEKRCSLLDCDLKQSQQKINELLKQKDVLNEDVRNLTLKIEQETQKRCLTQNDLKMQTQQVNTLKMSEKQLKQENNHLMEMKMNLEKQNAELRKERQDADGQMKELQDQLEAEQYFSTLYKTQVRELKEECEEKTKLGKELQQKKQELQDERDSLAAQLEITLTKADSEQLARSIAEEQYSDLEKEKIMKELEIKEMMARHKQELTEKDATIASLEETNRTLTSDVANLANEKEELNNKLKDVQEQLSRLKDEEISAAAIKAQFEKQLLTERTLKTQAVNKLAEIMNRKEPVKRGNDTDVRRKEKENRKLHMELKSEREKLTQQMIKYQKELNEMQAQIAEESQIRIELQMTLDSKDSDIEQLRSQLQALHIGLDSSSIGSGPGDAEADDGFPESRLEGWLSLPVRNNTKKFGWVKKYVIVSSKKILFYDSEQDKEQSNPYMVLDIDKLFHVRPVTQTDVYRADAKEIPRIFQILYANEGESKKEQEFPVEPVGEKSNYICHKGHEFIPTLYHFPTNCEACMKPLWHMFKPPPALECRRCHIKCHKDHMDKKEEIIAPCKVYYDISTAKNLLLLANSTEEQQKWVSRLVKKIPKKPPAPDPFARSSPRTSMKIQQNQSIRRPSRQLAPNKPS

ROS1 = ROS1 (Homo sapiens, UniProt P08922)
[3] = target: RSK1(Kin.Dom.2-C-terminal) (Homo sapiens, UniProt Q15418)
[4] = target: RSK2(Kin.Dom.2-C-terminal) (Homo sapiens, UniProt P51812)
Sequence of RSK2(Kin.Dom.2-C-terminal) (P51812 422-679 limits assumed): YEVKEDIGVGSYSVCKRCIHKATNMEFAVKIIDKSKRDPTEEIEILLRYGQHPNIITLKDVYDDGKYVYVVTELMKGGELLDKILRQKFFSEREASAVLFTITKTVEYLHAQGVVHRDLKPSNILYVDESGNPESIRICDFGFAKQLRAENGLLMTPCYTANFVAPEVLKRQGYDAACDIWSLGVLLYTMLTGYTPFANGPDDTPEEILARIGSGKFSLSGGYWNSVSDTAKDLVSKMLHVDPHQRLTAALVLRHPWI

SIK = SIK (Homo sapiens, UniProt P57059)
SRMS = SRMS (Homo sapiens, UniProt Q9H3Y6)
Sequence of SRMS (Q9H3Y6 whole entry): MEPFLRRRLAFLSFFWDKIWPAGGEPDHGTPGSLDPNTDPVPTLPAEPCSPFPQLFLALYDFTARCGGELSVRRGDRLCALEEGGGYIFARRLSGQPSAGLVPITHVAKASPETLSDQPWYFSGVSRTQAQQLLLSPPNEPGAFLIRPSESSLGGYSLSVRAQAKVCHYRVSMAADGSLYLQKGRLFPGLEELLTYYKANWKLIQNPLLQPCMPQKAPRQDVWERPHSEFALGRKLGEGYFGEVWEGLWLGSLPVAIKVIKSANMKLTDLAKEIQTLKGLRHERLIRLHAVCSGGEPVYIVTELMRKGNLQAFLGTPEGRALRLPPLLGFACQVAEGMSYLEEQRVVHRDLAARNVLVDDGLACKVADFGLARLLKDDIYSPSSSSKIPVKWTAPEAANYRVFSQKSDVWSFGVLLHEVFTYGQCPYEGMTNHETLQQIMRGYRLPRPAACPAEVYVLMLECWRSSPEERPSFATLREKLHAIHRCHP

SRPK2 = SRPK2 (Homo sapiens, UniProt P78362)
TXK = TXK (Homo sapiens, UniProt P42681)
Sequence of TXK (P42681 whole entry): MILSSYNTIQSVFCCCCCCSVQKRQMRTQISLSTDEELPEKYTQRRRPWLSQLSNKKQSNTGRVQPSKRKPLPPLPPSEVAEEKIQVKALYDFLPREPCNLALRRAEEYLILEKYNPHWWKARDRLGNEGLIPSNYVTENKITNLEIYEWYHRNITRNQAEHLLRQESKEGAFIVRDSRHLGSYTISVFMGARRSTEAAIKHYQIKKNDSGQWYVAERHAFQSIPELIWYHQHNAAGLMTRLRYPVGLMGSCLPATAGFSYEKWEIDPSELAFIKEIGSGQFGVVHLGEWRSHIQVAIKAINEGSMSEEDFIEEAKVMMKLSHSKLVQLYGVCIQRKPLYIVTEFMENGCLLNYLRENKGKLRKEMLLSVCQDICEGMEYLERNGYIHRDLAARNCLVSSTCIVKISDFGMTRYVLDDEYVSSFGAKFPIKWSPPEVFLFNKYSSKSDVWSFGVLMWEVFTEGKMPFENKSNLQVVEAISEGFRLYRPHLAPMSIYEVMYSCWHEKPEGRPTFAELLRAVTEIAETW

WNK1 = WNK1 (Homo sapiens, UniProt Q9H4A3)
WNK2 = WNK2 (Homo sapiens, UniProt Q9Y3S1)
WNK4 = WNK4 (Homo sapiens, UniProt Q96J92)

## C=CC(=O)Nc1ccc(OC)c(Nc2cc(-c3[nH]c(CC)nc3-c3cccc(NC(=O)c4cccc5c4NC(=O)c4ccccc4N5)c3)ccn2)c1 [Compound 4]
[1]
  POC: 65% of control
[2]
  POC: 72% of control
ABL2
  POC: 92% of control
ADCK4
  POC: 85% of control
BTK
  POC: 54% of control
CAMK2G
  POC: 100% of control
CASK
  POC: 97% of control
CDK3
  POC: 100% of control
CDK5
  POC: 100% of control
CDKL1
  POC: 100% of control
CLK3
  POC: 74% of control
CSNK1D
  POC: 87% of control
DCAMKL1
  POC: 100% of control
DDR1
  POC: 90% of control
DMPK
  POC: 45% of control
DYRK1A
  POC: 100% of control
DYRK1B
  POC: 88% of control
EGFR(L861Q)
  POC: 2.7% of control
FLT3(D835Y)
  POC: 96% of control
GRK2
  POC: 100% of control
HIPK1
  POC: 51% of control
LATS1
  POC: 100% of control
MAK
  POC: 89% of control
MAP4K2
  POC: 36% of control
MINK
  POC: 10% of control
MRCKA
  POC: 0% of control
NEK7
  POC: 86% of control
OSR1
  POC: 89% of control
PAK1
  POC: 100% of control
PHKG1
  POC: 96% of control
PIP5K1A
  POC: 75% of control
PIP5K2B
  POC: 100% of control
ROCK2
  POC: 94% of control
ROS1
  POC: 80% of control
[3]
  POC: 75% of control
[4]
  POC: 100% of control
SIK
  POC: 100% of control
SRMS
  POC: 61% of control
SRPK2
  POC: 100% of control
TXK
  POC: 42% of control
WNK1
  POC: 100% of control
WNK2
  POC: 62% of control
WNK4
  POC: 85% of control
